Tests used:
[1] = healthy resting adults; cited from earlier work
[2] = exposure to conditions mimicking the pH of the gut (beta hydroxy dehydration at low pH); format: physicochemical; settings: for dehydration of exposed beta hydroxy groups relative to the salts or free acid of β-hydroxybutyrate: low pH conditions
Text: The present invention generally relates to means of protecting or stabilizing the beta hydroxy group in β-hydroxybutyrate in order to prevent beta hydroxy dehydration in the presence of strong acid, such as found in the stomach. That reaction is a type of gastric degradation which yield compounds with no known metabolic therapy. […] Stabilizing the beta hydroxy group is possible by replacing the carboxylic acid functional group with an ester functional group, which prevents resonance between the two oxygen atoms by hydrogen and considerably stabilizes the beta hydroxy group reducing dehydration by as much as 40% compared to salts and the free acid of β-hydroxybutyrate. Protecting the beta hydroxy group is defined by replacing the beta hydroxy group with a second molecule of β-hydroxybutyrate forming an ester bond at the previous beta hydroxy functional group and yielding a dimer ester (DE) of β-hydroxybutyrate. Further described herein are similar therapeutic agents, compositions, and production processes thereof. […] The Dimer Esters protecting the beta hydroxy group are far less susceptible than any other identified compound to dehydration because only one beta hydroxy group is exposed of the two effective molecules of β-hydroxybutyrate This is disclosed in the prior art providing room for more advantageous compounds and formulations thereof as described herein. A third experiment was carried out exposing the salts and KME to conditions mimicking the pH of the gut.

| Compound | increase of myocardial output [1] | dehydration of exposed beta hydroxy groups relative to the salts or free acid of β-hydroxybutyrate [2] | dehydration on exposure to conditions mimicking the pH of the gut ([2]; third experiment, yields undesirable products) |
| --- | --- | --- | --- |
| CC(O)CC(=O)O (stereo not drawn) [beta hydroxybutyrate] | 50% |  |  |
| C[C@@H](O)CCOC(=O)C[C@@H](C)O [KME, (3R)-hydroxybutyl (3R)-hydroxybutyrate] |  | dehydrate to a far lesser extent | Rapid dehydration was observed |
| CC(CCO)OC(=O)C[C@@H](C)O (stereo partly shown) [SKE] |  | dehydrate to a far lesser extent |  |

From patent publication US20200385331A1, “ALTERNATIVE KETONE ESTERS AND PRODUCTION PROCESSES THEREOF” (KetoneAid Inc., priority 2018, published 2020)
